The record followed here is ChEMBL document CHEMBL6103624, “Design, Synthesis, and Biological Evaluation of Marchantin C-NO Donor Hybrids for Overcoming Pgp-Mediated Drug Resistance by Targeting Lysosome” (J Med Chem, 2025).

pIC50: −log10 of the molar value. Calls of active or inactive are those of the source. No cut-off for these calls is given here.

In data set [1] the test system is MCF7. As to the kind of experiment: Antiproliferative activity against human MCF7 cells assessed as inhibition of cell growth incubated for 48 hrs by MTT assay. The data set is classed as functional, cell-based. Particulars: MCF7, 48 h. For orientation: Formazan colour is commonly taken as a measure of viable cells.
Data set [2] concerns NCI/ADR-RES. As to the kind of experiment: Antiproliferative activity against human MCF7ADR cells assessed as inhibition of cell growth incubated for 48 hrs by MTT assay. The data set is classed as functional, cell-based.
In the next data set the test system is A549. As to the kind of experiment: Antiproliferative activity against human A549 cells assessed as inhibition of cell growth incubated for 48 hrs by MTT assay. It counts as functional, cell-based. Particulars: A549, 48 h.
The next data set has as its system HepG2. As to the kind of experiment: Antiproliferative activity against human HepG2 cells assessed as inhibition of cell growth incubated for 48 hrs by MTT assay. It counts as functional, cell-based. Particulars: HepG2, 48 h.
In a further data set the test system is PC-3. As to the kind of experiment: Antiproliferative activity against human PC-3 cells assessed as inhibition of cell growth incubated for 48 hrs by MTT assay. The data set is classed as functional, cell-based. Conditions: PC-3, 48 h.
In data set [3] the test system is MCF7. As to the kind of experiment: Induction of NO release in human MCF7 cells at 100 uM measured for 5 hrs by Griess reagent assay. The data set is classed as functional, cell-based. In general terms: Nitrite, measured by Griess reagent, commonly stands in for NO production.
In data set [4] the test system is NCI/ADR-RES. As to the kind of experiment: Induction of NO release in human MCF7ADR cells at 100 uM measured for 5 hrs by Griess reagent assay. The data set is classed as functional, cell-based.
Data set [5] has as its system NCI/ADR-RES. As to the kind of experiment: Induction of NO release in human MCF7ADR cells at 100 uM by Griess reagent assay. It counts as functional, cell-based. Particulars: time <= 10.0 hrs.
A short description of data set [6]: Selectivity index, ratio of IC50 for human MCF-10A to IC50 for human MDA-MB-231 cells. It counts as toxicity. Particulars: MCF-10A cells and MDA-MB-231 cells, read-out: Ratio IC50.

As to `O=C(/N=c1\c[n+](-c2ccccc2)[n-]o1)Oc1cccc2c1Oc1cccc(c1)CCc1ccc(O)c(c1)Oc1ccc(cc1)CC2`, the pIC50 (commonly −log10 of the IC50, conventionally taken in molar units) in the data set with MCF7 [1] was < 4.70; with NCI/ADR-RES [2], < 4.70; in the data set with A549, < 4.40; in the data set with HepG2, < 4.70; in the data set with PC-3 it was < 4.70. The result with MCF7 [3] and with NCI/ADR-RES [4] was inactive. Besides, in the data set on NCI/ADR-RES [5], the Activity entry was “Time-dependent-effect”.
As to `CCN(CC)c1ccc2cc(C(=O)OCCCCCOc3cc4ccc(=O)oc4cc3OCCCCCCOc3no[n+]([O-])c3S(=O)(=O)c3ccccc3)c(=O)oc2c1`, the selectivity ratio in data set [6] is > 6250.
With `O=[N+]([O-])OCC(COc1cccc2c1Oc1cccc(c1)CCc1ccc(O)c(c1)Oc1ccc(cc1)CC2)O[N+](=O)[O-]` (configuration not stated), the pIC50 was < 4.70 in the data set with MCF7 [1]; < 4.70 in the data set with NCI/ADR-RES [2]; < 4.40 in the data set with A549; < 4.70 in the data set on HepG2; 4.93 in the data set with PC-3. Moreover, the outcome with MCF7 [3] and in the data set with NCI/ADR-RES [4] was inactive. Further, the Activity entry in the data set with NCI/ADR-RES [5] is “Time-dependent-effect”.
